# US6436954B1, “Benzoquinolizidine and benzoindolizidine derivatives and therapeutic uses thereof” (priority 1998, dated 2002)
# Legend:
# acetylcholinesterase = molecular target: T1, acetylcholinesterase (Rattus norvegicus, UniProt P37136); experiment: Acetylcholinesterase activity in rat brain homogenate (Ellman spectrophotometric method); assay type: biochemical, Wistar rat; details: rat brain enzyme preparation
# T1 construct: Wistar rat brain was homogenized in 10% (w/v) of ice-cold Tris-buffered saline; from tissue; host or cells: Wistar rat brain homogenate, 10,000 g supernatant
# T1 sequence (P37136 32-614): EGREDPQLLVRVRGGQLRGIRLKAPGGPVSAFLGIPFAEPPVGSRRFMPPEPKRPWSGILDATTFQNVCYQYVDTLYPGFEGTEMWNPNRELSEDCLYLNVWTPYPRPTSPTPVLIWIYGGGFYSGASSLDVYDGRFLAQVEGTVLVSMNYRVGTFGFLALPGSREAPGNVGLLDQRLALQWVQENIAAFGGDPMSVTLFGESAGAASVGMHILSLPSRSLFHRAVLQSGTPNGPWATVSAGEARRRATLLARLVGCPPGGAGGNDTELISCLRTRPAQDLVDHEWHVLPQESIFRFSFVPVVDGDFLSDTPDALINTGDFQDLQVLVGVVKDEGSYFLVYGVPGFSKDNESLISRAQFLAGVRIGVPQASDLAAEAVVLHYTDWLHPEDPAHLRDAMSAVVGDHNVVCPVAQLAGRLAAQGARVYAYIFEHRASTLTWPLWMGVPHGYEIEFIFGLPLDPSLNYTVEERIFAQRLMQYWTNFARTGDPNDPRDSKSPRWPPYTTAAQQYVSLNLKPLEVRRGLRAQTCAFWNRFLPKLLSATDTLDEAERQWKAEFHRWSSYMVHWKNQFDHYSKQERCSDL
# Protocol: Wistar rat brain was homogenized in 10% (w/v) of ice-cold Tris-buffered saline which comprised 10 mM Tris HCl, pH 7.4, 1 mM ethylenediaminetetraacetic acid, 0.9% (w/v) bovine serum albumin. Homogenates were centrifuged at 10,000 g for 10 minutes at 4° C. Supernatants were decanted and stored in aliquots at −70° C. until required.
# Briefly, the assay was carried out at room temperature using 0.1 M phosphate buffer, pH 8.0, containing 0.075 M acetylthiocholine iodide and 0.01 M 5,5-dithio-bis-(2-nitrobenzoic acid) (DTNB). The DTNB was prepared in 0.1 M phosphate buffer, pH 7.0, which contained 0.018 M sodium bicarbonate to ensure stability. The reaction was started by the addition of 100 μg of enzyme preparation to a final assay volume of 3.2 ml, and mixed thoroughly. Progress was monitored spectrophotometrically at 412 nm for a continuous period. A blank was run in conjunction with each assay and differed from the test only in that it contained phosphate buffer in place of acetylthiocholine iodide. AchE was assayed in the presence of ethopropazine, which was prepared in ethanol. […] BCHE was measured in the presence of 10^−5 M 1,5-bis-(4-trimethylammoniophenyl)pentan-3-one dibromide (62C47), a specific acetylcholinesterase inhibitor which was added to a final concentration of 10^−5 M. All solutions were freshly prepared and protected from light. Acetylthiocholine, DTNB, 62C47 and ethopropazine were obtained from Sigma Chemical Co., St. Louis, Mo. All other reagents were of the highest grade available from routine suppliers.
# Results are expressed as mM acetylthiocholine hydrolysed/100 ug protein/min in Table 1. […] To facilitate comparison between compounds requiring different solubilization vehicles, the relevant results are expressed as percent of the control value in Table 2.
# [1] = test system: scopolamine-impaired passive avoidance learning; experiment: Reversal of scopolamine-induced amnesia of a passive-avoidance response; assay type: in vivo, Wistar rats; details: mean ± SEM (n)
# Protocol: (b) Reversal of Scopolamine-induced Amnesia of a Passive-avoidance Response.
# Postnatal day 80 male Wistar rats (300-350 g) were obtained from the Biomedical Facility, University College, Dublin. These were housed singly in a 12 h light/dark cycle with food and water available ad libitum. Animals employed for neurobehavioral studies were maintained and handled in the test environment for 3 days prior to the commencement of studies. All experimental procedures were approved by the Review Committee of the Biomedical Facility of University College, Dublin and were carried out by individuals who held the appropriate license issued by the Ministry of Health.
# Animals were trained in a one-trial, step-through, light-dark passive avoidance paradigm. The apparatus consisted of a box measuring 300 mm wide×260 mm deep×270 mm high. The front and top were transparent, allowing observation of behavior inside the apparatus. The box was divided into two compartments, separated by a central shutter which contained a small opening 50 mm wide and 75 mm high. The smaller of the compartments measured 90 mm in width and contained a low power (6 V V) illumination source—the light compartment. The large compartment measured 210 mm in width and was not illuminated. The floor of the training apparatus consisted of a grid of stainless steel bars which could deliver a remotely-controlled, scrambled shock (0.75 mA every 0.5 msec, 5 sec duration) when the animal entered the dark chamber with all four paws. The animals were tested for recall of this inhibitory stimulus prior to sacrifice by placing them into the light compartment and noting their latency to enter the dark compartment. A criterion period of 300 sec was used. The results of this protocol, after administration of saline, scopolamine, test compound, and scopolaine plus test compound, are presented in Table 3.
# [2] = test compound 10 mg/kg + scopolamine 0.8 mg/kg
# [3] = test compound 30 mg/kg + scopolamine 0.8 mg/kg
# [4] = test compound 10 mg/kg alone, 10 mg/kg
Structure (SMILES),Acetylcholinesterase activity in the presence of compound (acetylcholinesterase; compound concentration 100 nM),Acetylcholinesterase activity in the presence of compound (acetylcholinesterase; compound concentration 10 μM),Acetylcholinesterase activity in the presence of compound (acetylcholinesterase; compound concentration 1.0 mM),"passive avoidance latency, Test cpd. + scopolamine [1, 2]","passive avoidance latency, Test cpd. + scopolamine [1, 3]",further results
"N[C@@H]1c2ccccc2CN2CCCC[C@H]12 (relative stereo) [Example 15, trans-1,3,4,6,11,11a-Hexahydro-11-amino-2H-benzo[b]quinolizine]",2.20 mM substrate hydrolyzed/min/100 μg protein,2.00 mM substrate hydrolyzed/min/100 μg protein,0.20 mM substrate hydrolyzed/min/100 μg protein,148 ± 101 (5) seconds,132 ± 103 (6) seconds,"passive avoidance latency, Test cpd. alone ([1]; test compound 10 mg/kg alone): 292 ± 92 (6) seconds; passive avoidance latency, Test cpd. alone ([1]; test compound 30 mg/kg alone): 188 ± 102 (6) seconds"
"CC(=O)O[C@@H]1c2ccccc2CN2CCCC[C@H]12 (relative stereo) [Example 20, O-acetyl-trans-1,3,4,6,11,11a-hexahydro-2H-benzo[b]quinolizidin-11-ol]",2.10 mM substrate hydrolyzed/min/100 μg protein,1.40 mM substrate hydrolyzed/min/100 μg protein,0.30 mM substrate hydrolyzed/min/100 μg protein,,,
"O[C@@H]1c2ccccc2CN2CCCC[C@H]12 (relative stereo) [Example 18b, trans-1,3,4,6,11,11a-hexahydro-2H-benzo[b]quinolizidin-11-ol]",2.50 mM substrate hydrolyzed/min/100 μg protein,1.90 mM substrate hydrolyzed/min/100 μg protein,1.00 mM substrate hydrolyzed/min/100 μg protein,,,
"CN[C@@H]1c2cc(OC)ccc2CN2CCCC[C@H]12 (relative stereo) [Example 10, trans-N-Methyl-9-methoxy-1,3,4,6,11,11a-hexahydro11-amino-2H-benzo[b]quinolizine]",,,,054 ± 20 (6) seconds,,"passive avoidance latency, Test cpd. alone ([1]; test compound 10 mg/kg alone): 592 ± 9 (6) seconds"
"CC(=O)O[C@@H]1c2ccccc2CN2CCCC[C@@H]12 (relative stereo) [Example 19, O-acetyl-cis-1,3,4,6,11,11a-hexahydro-2H-benzo[b]quinolizidin-11-ol]",2.20 mM substrate hydrolyzed/min/100 μg protein,1.90 mM substrate hydrolyzed/min/100 μg protein,0.70 mM substrate hydrolyzed/min/100 μg protein,,,
"c1ccc(CN[C@@H]2c3ccccc3CN3CCCC[C@H]23)cc1 (relative stereo) [Example 13, trans-N-Benzyl-1,3,4,6,11,11a-hexahydro-11-amino-2H-benzo[b]quinolizine]",2.30 mM substrate hydrolyzed/min/100 μg protein,1.90 mM substrate hydrolyzed/min/100 μg protein,0.20 mM substrate hydrolyzed/min/100 μg protein,048 ± 14 (5) seconds,,"passive avoidance latency, Test cpd. alone ([1]; test compound 10 mg/kg alone): 410 ± 115 (6) seconds"
"O[C@@H]1c2ccccc2CN2CCCC[C@@H]12 (relative stereo) [Example 18a, cis-1,3,4,6,11,11a-hexahydro-2H-benzo[b]quinolizidin-11-ol]",2.30 mM substrate hydrolyzed/min/100 μg protein,2.10 mM substrate hydrolyzed/min/100 μg protein,1.70 mM substrate hydrolyzed/min/100 μg protein,,,
"CN[C@@H]1c2ccccc2CN2CCCC[C@@H]12 (relative stereo) [Example 17, cis-N-methyl-1,3,4,6,11,11a-hexahydro-2H-benzo[b]quinolizidin-11-amine]",2.00 mM substrate hydrolyzed/min/100 μg protein,1.90 mM substrate hydrolyzed/min/100 μg protein,0.80 mM substrate hydrolyzed/min/100 μg protein,,,
"CN[C@@H]1c2ccccc2CN2CCC[C@@H]12 (relative stereo) [Example 34a, cis-10-methylamino-1,2,3,5,10,10a-hexahydropyrrolo[1,2-b]isoquinoline]",,,,,534 ± 76 (3) seconds,"passive avoidance latency, Test cpd. alone ([1]; test compound 30 mg/kg alone): 559 ± 50 (3) seconds"
O[C@@H]1c2ccccc2CN2CCC[C@@H]12 (relative stereo),,,,,,melting point: 131 to 133 °C
"CN[C@@H]1c2ccccc2CN2C(=O)CC[C@@H]12 (relative stereo) [Example 26b, cis-10Methylamino-1,2,3,5,10,10a-hexahydropyrrolo[1,2b]isoquinolin-3-one]",,,,,182 ± 163 (4) seconds,"passive avoidance latency, Test cpd. alone ([1]; test compound 30 mg/kg alone): 600 (3) seconds"
"CN[C@@H]1c2ccccc2CN2CCCC[C@H]12 (relative stereo) [Example 9, trans-N-Methyl-1,3,4,6,11,11a-hexahydro-11-amino-2H-benzo[b]quinolizine]",,2.00 mM substrate hydrolyzed/min/100 μg protein,0.30 mM substrate hydrolyzed/min/100 μg protein,104 ± 48 (12) seconds,258 ± 156 (5) seconds,"passive avoidance latency, Test cpd. alone [1, 4]: 459 ± 53 (12) seconds; passive avoidance latency, Test cpd. alone ([1]; test compound 30 mg/kg alone): 529 ± 78 (6) seconds; passive avoidance latency, Test cpd. + scopolamine ([1]; test compound 45 mg/kg + scopolamine 0.8 mg/kg): 322 ± 112 (8) seconds; passive avoidance latency, Test cpd. alone ([1]; test compound 45 mg/kg alone): 340 ± 146 (5) seconds"
"CN[C@@H]1c2ccccc2CN2CCCC[C@H]12 (relative stereo) [Example 9a, trans-N-Methyl-1,3,4,6,11,11a-hexahydro-11-amino-2H-benzo[b]quinolizine]",,,,216 ± 260 (2) seconds,,"passive avoidance latency, Test cpd. alone [1, 4]: 328 ± 177 (3) seconds"
"COc1ccc2c(c1)[C@@H](NCc1ccccc1)[C@H]1CCCCN1C2 (relative stereo) [Example 14, trans-N-Benzyl-9-methoxy-1,3,4,6,11,11a-hexahydro-11-amino-2H benzo[b]quinolizine]",,,,,211 ± 238 (3) seconds,
